From ChEMBL document CHEMBL5512640, “Discovery of novel itaconimide-based derivatives as potent HDAC inhibitors for the efficient treatment of prostate cancer” (Eur J Med Chem, 2024)
Calls of active or inactive are those of the source. The rule behind the calls is not given here.

Assays:
[1] = molecular target: Histone deacetylase 1 (Homo sapiens, UniProt Q13547); experiment: Inhibition of human HDAC1 incubated for 10 mins followed by fluorogenic substrate addition by fluorescence based analysis
[2] = tested on: DU-145; experiment: Antiproliferative activity against human DU-145 cells incubated for 96 hrs by MTT assay; type: functional, cell-based; settings: DU-145, 96 h
[3] = tested on: PC-3; experiment: Antiproliferative activity against human PC-3 cells incubated for 96 hrs by MTT assay; type: functional, cell-based; settings: PC-3, 96 h
[4] = tested on: DU-145; experiment: Induction of apoptosis in human DU-145 cells assessed as apoptotic rate at 1.6 uM measured after 72 hrs by annexin V-FITC and PI staining based flow cytometry analysis relative to control; type: functional
[5] = tested on: DU-145; experiment: Downregulation of HDAC6 expression in human DU-145 cells at 0.8 uM incubated for 24 hrs by Western blot analysis; type: functional, cell-based
[6] = Toxicity in Balb/c mouse assessed as effect on body weight at 8 mg/kg, ip measured upto 40 days; type: organism-based; settings: in vivo, 960 h, time < 40 day
[7] = Toxicity in Balb/c mouse assessed as mortality at 8 mg/kg, ip measured upto 40 days; type: organism-based; settings: in vivo, 960 h, time < 40 day
[8] = tested on: DU-145; experiment: Antitumor activity against human DU-145 cells xenografted in Balb/c nude mouse model assessed as tumor growth inhibition at 8 mg/kg, ip administered once daily for 40 days relative to control; type: functional; settings: DU-145, 960 h, time 40 day, read-out: TGI
[9] = tested on: A549; experiment: Antiproliferative activity against human A549 cells incubated for 96 hrs by MTT assay; type: functional, cell-based; settings: A549, 96 h
[10] = tested on: NCI-H446; experiment: Antiproliferative activity against human NCI-H446 cells incubated for 96 hrs by MTT assay; type: functional, cell-based; settings: NCI-H446, 96 h
[11] = tested on: NCI-H1650; experiment: Antiproliferative activity against human NCI-H1650 cells incubated for 96 hrs by MTT assay; type: functional, cell-based; settings: NCI-H1650, 96 h
[12] = tested on: MCF7; experiment: Antiproliferative activity against human MCF7 cells incubated for 96 hrs by MTT assay; type: functional, cell-based; settings: MCF7, 96 h
[13] = tested on: MDA-MB-231; experiment: Antiproliferative activity against human MDA-MB-231 cells incubated for 96 hrs by MTT assay; type: functional, cell-based; settings: MDA-MB-231, 96 h
[14] = tested on: HCT-116; experiment: Antiproliferative activity against human HCT-116 cells incubated for 96 hrs by MTT assay; type: functional, cell-based; settings: HCT-116, 96 h
[15] = tested on: HT-29; experiment: Antiproliferative activity against human HT-29 cells incubated for 96 hrs by MTT assay; type: functional, cell-based; settings: HT-29, 96 h
[16] = tested on: LNCaP; experiment: Antiproliferative activity against human LNCaP cells incubated for 96 hrs by MTT assay; type: functional, cell-based
[17] = molecular target: Polyamine deacetylase HDAC10 (Homo sapiens, UniProt Q969S8); experiment: Inhibition of human HDAC10 incubated for 10 mins followed by fluorogenic substrate addition by fluorescence based analysis
[18] = molecular target: Histone deacetylase 11 (Homo sapiens, UniProt Q96DB2); experiment: Inhibition of human HDAC11 incubated for 10 mins followed by fluorogenic substrate addition by fluorescence based analysis
Sequence of Histone deacetylase 11 (Q96DB2 whole entry): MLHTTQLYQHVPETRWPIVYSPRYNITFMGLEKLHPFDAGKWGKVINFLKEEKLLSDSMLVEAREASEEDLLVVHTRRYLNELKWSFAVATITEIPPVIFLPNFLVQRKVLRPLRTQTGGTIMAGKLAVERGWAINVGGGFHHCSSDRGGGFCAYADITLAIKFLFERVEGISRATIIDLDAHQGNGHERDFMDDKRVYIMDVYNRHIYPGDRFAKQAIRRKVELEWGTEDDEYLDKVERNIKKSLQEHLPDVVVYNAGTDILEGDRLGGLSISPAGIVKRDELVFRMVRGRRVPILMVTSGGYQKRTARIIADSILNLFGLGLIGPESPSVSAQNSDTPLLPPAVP

Sequence of Histone deacetylase 1 (Q13547 whole entry): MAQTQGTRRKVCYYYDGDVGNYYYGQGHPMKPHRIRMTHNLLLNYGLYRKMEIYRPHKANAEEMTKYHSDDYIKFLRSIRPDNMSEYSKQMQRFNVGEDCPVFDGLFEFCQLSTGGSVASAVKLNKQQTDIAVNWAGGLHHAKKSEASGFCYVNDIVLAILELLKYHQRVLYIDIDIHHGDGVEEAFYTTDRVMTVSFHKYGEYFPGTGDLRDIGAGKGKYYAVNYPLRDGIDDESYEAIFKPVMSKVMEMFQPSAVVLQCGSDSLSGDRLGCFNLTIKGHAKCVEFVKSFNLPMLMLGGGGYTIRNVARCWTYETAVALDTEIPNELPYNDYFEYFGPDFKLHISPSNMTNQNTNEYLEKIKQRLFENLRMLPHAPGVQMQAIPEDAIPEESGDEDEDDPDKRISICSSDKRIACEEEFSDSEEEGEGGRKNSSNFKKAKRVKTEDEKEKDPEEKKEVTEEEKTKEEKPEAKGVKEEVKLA
Sequence of Polyamine deacetylase HDAC10 (Q969S8 whole entry): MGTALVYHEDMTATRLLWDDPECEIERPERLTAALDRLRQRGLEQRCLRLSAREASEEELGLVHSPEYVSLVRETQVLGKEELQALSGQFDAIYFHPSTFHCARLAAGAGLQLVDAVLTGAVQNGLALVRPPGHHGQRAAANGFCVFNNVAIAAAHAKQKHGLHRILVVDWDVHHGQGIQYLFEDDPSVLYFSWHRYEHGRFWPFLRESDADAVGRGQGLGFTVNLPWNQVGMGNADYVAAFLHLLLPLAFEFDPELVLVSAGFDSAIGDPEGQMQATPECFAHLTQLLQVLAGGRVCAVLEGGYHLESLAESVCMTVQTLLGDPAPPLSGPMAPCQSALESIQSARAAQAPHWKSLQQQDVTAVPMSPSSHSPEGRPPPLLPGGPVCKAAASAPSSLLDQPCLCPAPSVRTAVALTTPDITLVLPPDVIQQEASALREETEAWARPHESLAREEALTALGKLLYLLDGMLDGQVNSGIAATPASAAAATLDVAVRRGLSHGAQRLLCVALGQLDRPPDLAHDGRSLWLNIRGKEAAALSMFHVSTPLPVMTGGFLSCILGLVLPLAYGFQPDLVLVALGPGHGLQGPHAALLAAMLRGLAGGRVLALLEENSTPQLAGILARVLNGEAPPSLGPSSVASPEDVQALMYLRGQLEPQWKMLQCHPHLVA

| Structure (SMILES) | IC50 [1] [nM] | IC50 [2] [nM] | IC50 [3] [nM] | also measured |
| --- | --- | --- | --- | --- |
| O=C(CCCCCCN1C(=O)C/C(=C\c2ccccc2O)C1=O)NO | 19.4 | 1720 | 1930 |  |
| COc1ccc(/C=C2\CC(=O)N(CCCCCCC(=O)NO)C2=O)cc1OC | 24.7 | 450 | 880 |  |
| O=C(CCCCCCN1C(=O)C/C(=C\c2ccccc2Cl)C1=O)NO | 19.3 | 480 | 1440 |  |
| CC(C)c1ccc(/C=C2\CC(=O)N(CCCCCCC(=O)NO)C2=O)cc1 | 28.6 | 1350 | 1820 |  |
| CN(C)c1ccc(/C=C2\CC(=O)N(CCCCCCC(=O)NO)C2=O)cc1 | 26.7 | 920 | 1750 |  |
| O=C(CCCCCCN1C(=O)C/C(=C\c2cccs2)C1=O)NO | 25.1 | 540 | 910 |  |
| O=C(CCCCCCN1C(=O)C/C(=C\c2cccc(Cl)c2)C1=O)NO | 18.8 | 380 | 1700 |  |
| O=C(CCCCCCN1C(=O)C/C(=C\c2cccc(F)c2)C1=O)NO | 75.2 | 660 | 890 |  |
| O=C(CCCCCCN1C(=O)C/C(=C\c2ccc(Cl)c(Cl)c2)C1=O)NO | 27.9 | 440 | 1690 |  |
| CCOc1ccccc1/C=C1\CC(=O)N(CCCCCCC(=O)NO)C1=O | 16.7 | 340 | 890 |  |
| COc1ccc(Br)cc1/C=C1\CC(=O)N(CCCCCCC(=O)NO)C1=O | 78.1 | 460 | 1130 |  |
| O=C(NO)c1ccc(CN2C(=O)C/C(=C\c3ccccc3)C2=O)cc1 | 32.9 | 2540 | 7820 |  |
| O=C(CCCCCCC(=O)Nc1ccccc1)NO [VORINOSTAT] |  |  |  | Activity [4]: 73.76%; Activity [5]: Active |
| O=C(CCCCN1C(=O)C/C(=C\c2ccccc2)C1=O)NO | 136 | > 20000 | > 20000 |  |
| O=C(CCCCCCN1C(=O)C/C(=C\c2cccc(I)c2)C1=O)NO | 28.7 | 910 | 1470 |  |
| Nc1cc(F)ccc1NC(=O)CCCCCN1C(=O)C/C(=C\c2ccccc2)C1=O | 105 | 11100 | > 20000 |  |
| COc1cc(/C=C2\CC(=O)N(CCCCCCC(=O)NO)C2=O)cc(OC)c1OC | 27.5 | 1030 | 1710 |  |
| Cc1ccc(/C=C2\CC(=O)N(CCCCCCC(=O)NO)C2=O)cc1 | 25.5 | 310 | 2200 |  |

| Structure (SMILES) | IC50 [1] [nM] | IC50 [2] [nM] | IC50 [3] [nM] | also measured |
| --- | --- | --- | --- | --- |
| Cc1ccccc1/C=C1\CC(=O)N(CCCCCCC(=O)NO)C1=O | 21.7 | 710 | 930 |  |
| O=C(CCCCCCN1C(=O)C/C(=C\c2ccccc2)C1=O)NO | 12.9 | 500 | 820 |  |
| O=C(CCCCCCN1C(=O)C/C(=C\c2cccc(Br)c2)C1=O)NO | 19.1 | 650 | 1060 |  |
| COc1cccc(/C=C2\CC(=O)N(CCCCCCC(=O)NO)C2=O)c1 | 18.5 | 400 | 920 |  |
| CC(=O)O[C@@]12CO[C@@H]1C[C@H](O)[C@@]1(C)C(=O)[C@H](O)C3=C(C)[C@@H](OC(=O)[C@H](O)[C@@H](NC(=O)OC(C)(C)C)c4ccccc4)C[C@@](O)([C@@H](OC(=O)c4ccccc4)[C@H]21)C3(C)C [DOCETAXEL ANHYDROUS] |  |  |  | Activity [6]: Toxic; Activity [7]: Toxic; inhibition in vivo at 8 mg/kg [8]: 13.3% |
| O=C(CCCCCCCN1C(=O)C/C(=C\c2ccccc2)C1=O)NO | 25.2 | 1560 | 5010 |  |
| N#Cc1ccccc1/C=C1\CC(=O)N(CCCCCCC(=O)NO)C1=O | 40.1 | 740 | 870 |  |
| Nc1cc(F)ccc1NC(=O)CCCCCCN1C(=O)C/C(=C\c2ccccc2)C1=O | 144 | > 20000 | > 20000 |  |
| O=C(CCCCCCN1C(=O)C/C(=C\c2ccc(Cl)cc2)C1=O)NO | 23.4 | 570 | 890 |  |
| Nc1cc(F)ccc1NC(=O)CCCN1C(=O)C/C(=C\c2ccccc2)C1=O | 231 | > 20000 | > 20000 |  |
| O=C(CCCCCCN1C(=O)C/C(=C\c2ccc(C(F)(F)F)cc2)C1=O)NO | 33.8 | 1220 | 1830 |  |
| C=C(CC(N)=O)C(N)=O |  | 14800 | 9990 |  |
| Nc1cc(F)ccc1NC(=O)c1ccc(CNC(=O)/C=C/c2cccnc2)cc1 [TUCIDINOSTAT] |  | 1490 | 5770 | IC50 [9]: 9850 nM; IC50 [10]: 240 nM; IC50 [11]: > 20000 nM; IC50 [12]: > 20000 nM; IC50 [13]: 1860 nM; IC50 [14]: 920 nM; IC50 [15]: 4570 nM; IC50 [16]: 2890 nM; IC50 [17]: 456 nM; IC50 [18]: > 5000 nM |
| COc1ccc(/C=C2\CC(=O)N(CCCCCCC(=O)NO)C2=O)cc1 | 13 | 500 | 890 |  |
| O=C(CCCN1C(=O)C/C(=C\c2ccccc2)C1=O)NO | 182 | > 20000 | > 20000 |  |
| O=C(CCCCCN1C(=O)C/C(=C\c2ccccc2)C1=O)NO | 32.2 | 1490 | 4270 |  |
| Nc1cc(F)ccc1NC(=O)CCCCN1C(=O)C/C(=C\c2ccccc2)C1=O | 173 | > 20000 | > 20000 |  |
